Common to all, as to format: cell-based
The target in data set [1] is T1, P-glycoprotein (Pgp) (Homo sapiens, UniProt P08183). As to the kind of experiment: fluorescence accumulation in PgpCFP-transfected cells.
The target in data set [2] is T1, P-glycoprotein (Pgp). As to the kind of experiment: fluorescence accumulation in PgpGFP-transfected cells.
Data set [3] has as its target T1, P-glycoprotein (Pgp). As to the kind of experiment: protection from microtubule depolymerization in PgpGFP-transfected HeLa cells.
For data set [4], the target named is T1, P-glycoprotein (Pgp). As to the kind of experiment: cellular drug accumulation versus Pgp expression.
In data set [5] the target is T1, P-glycoprotein (Pgp). As to the kind of experiment: protection from microtubule depolymerization in PgpGFP-transfected HeLa cells. The source holds these as a separate data set.

T1 sequence (P08183 whole entry): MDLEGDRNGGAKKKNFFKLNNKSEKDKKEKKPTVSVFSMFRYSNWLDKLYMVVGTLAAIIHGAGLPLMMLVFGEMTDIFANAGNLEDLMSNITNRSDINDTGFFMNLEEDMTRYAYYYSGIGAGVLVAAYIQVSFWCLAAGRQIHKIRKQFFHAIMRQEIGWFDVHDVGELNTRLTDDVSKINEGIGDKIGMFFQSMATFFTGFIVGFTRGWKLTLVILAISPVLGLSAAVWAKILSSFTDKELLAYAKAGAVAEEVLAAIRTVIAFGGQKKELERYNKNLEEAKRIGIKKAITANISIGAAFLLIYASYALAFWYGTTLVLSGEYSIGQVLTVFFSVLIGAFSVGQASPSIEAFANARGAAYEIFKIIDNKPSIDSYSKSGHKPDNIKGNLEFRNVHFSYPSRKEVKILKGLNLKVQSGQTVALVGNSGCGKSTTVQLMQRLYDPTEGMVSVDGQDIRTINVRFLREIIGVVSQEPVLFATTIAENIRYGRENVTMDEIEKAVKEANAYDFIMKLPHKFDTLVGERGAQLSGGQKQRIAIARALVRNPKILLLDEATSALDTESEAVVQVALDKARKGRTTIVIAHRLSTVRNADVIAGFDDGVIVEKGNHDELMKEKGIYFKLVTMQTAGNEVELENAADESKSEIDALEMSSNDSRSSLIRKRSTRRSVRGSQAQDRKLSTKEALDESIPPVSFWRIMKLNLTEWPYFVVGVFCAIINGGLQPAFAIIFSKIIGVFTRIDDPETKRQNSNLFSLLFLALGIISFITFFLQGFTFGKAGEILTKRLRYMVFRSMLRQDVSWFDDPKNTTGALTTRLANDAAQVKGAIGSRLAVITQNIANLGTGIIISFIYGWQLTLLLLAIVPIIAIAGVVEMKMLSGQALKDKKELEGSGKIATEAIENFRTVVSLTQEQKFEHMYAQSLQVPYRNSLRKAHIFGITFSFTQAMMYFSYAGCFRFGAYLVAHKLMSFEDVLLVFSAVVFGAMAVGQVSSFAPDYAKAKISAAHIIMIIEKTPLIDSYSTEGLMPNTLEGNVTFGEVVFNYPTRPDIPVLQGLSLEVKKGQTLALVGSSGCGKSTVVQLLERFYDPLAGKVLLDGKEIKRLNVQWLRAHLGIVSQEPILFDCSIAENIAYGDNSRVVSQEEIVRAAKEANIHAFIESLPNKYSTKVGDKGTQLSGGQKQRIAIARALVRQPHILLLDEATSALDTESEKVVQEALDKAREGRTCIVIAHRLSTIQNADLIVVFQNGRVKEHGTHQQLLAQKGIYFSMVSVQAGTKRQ

`CC(=O)OCOC(=O)CN(CC(=O)OCOC(C)=O)Cc1cc2c(cc1OC(C)=O)Oc1cc(OC(C)=O)c(CN(CC(=O)OCOC(C)=O)CC(=O)OCOC(C)=O)cc1C21OC(=O)c2ccccc21` [Calcein AM] showed an Effects on fluorescence on P-glycoprotein (Pgp) [1] above 10 fold.

`CC(=O)OCOC(=O)CN(CC(=O)OCOC(C)=O)c1ccc(C)cc1OCCOc1cc2cc(-c3ncc(C(=O)OCOC(C)=O)o3)oc2cc1N(CC(=O)OCOC(C)=O)CC(=O)OCOC(C)=O` [Fura-2 AM] registered an Effects on fluorescence at P-glycoprotein (Pgp) [2] above 10 fold.

`COc1cc2c(c(OC)c1OC)-c1ccc(OC)c(=O)cc1[C@@H](NC(C)=O)CC2` [colchicine]: the Fold resistance on P-glycoprotein (Pgp) [3] was 5–25 fold.

In the case of `O=C1c2c(O)ccc(O)c2C(=O)c2c(NCCNCCO)ccc(NCCNCCO)c21` [mitoxantrone], the “cellular drug accumulation versus Pgp expression (data not shown)” value on P-glycoprotein (Pgp) [4] is recorded as “the level of Pgp expression was inversely related to the cellular accumulation of mitoxantrone”.

Take `CC[C@]1(O)C[C@H]2CN(CCc3c([nH]c4ccccc34)[C@@](C(=O)OC)(c3cc4c(cc3OC)N(C=O)[C@H]3[C@@](O)(C(=O)OC)[C@H](OC(C)=O)[C@]5(CC)C=CCN6CC[C@]43[C@@H]65)C2)C1` [vincristine]: the “protection from microtubule depolymerization in PgpGFP-transfected HeLa cells (2)” value at P-glycoprotein (Pgp) [5] was 25–125 fold.

The values are drawn from publication PMC2174548 (The Journal of Cell Biology, 2000).
